{"source": "patent US7816074B2", "about": "“α4 β2 δGABA-A receptors as a strategy for PMS and alcoholism” (priority 2003, dated 2010)", "key": {"[1]": {"system": "female Long Evans rats", "experiment": "Elevated plus maze", "conditions": "ethanol 0.5 g/kg", "procedure": "Adult, female Long Evans rats (200-250 grams at the time of testing) were used in the following example. Animals were housed in pairs under controlled conditions (14:10 light:dark cycle, 24° C.) with free access to food and water. Progesterone (P, Sigma, crystalline)-filled capsules of silicone tubing (Nalgene Co. 1/16″×⅛″ o.d., 10 mm/100 g body weight) were implanted subcutaneously in the lower back after induction of halothane anesthesia (3-6% in O2, 1 liter/minutes) in the experimental animals. […] Capsules were removed under halothane anesthesia after a 21-day P administration period, and animals tested 24 hours after the last injection (“P withdrawal”). Control animals were tested on the day of diestrus, also referred to as diestrus controls, a low hormone state, as determined by vaginal lavage. […] All animals were tested between 0730 and 1100 hour. Euthanasia was either by decapitation in the electrophysiology experiments or CO2 inhalation for the behavioral experiments following the indicated protocols.\nThis device consists of four 10×50 cm arms at 90° angles, with two arms enclosed by 40 cm walls, and two open arms, all elevated 50 cm above the floor. The open arms are also partially bordered by small rails extending to the proximal half of the arm, and the floor of the maze is marked with grid lines every 25 cm. […] Both number of entries and duration of time spent in the open and closed arms were tabulated, as were the total arm entries, a measure of general activity level. To be considered an open arm entry, the animal had to cross the line of the open platform with all four paws. An increase in open arm entries or time spent in the open arm versus the total time is considered to be a measure of decreased anxiety, (25)."}, "[2]": {"molecular_target": "α1β1 receptors / oocytes injected with α1+β1+δ (Rattus norvegicus, UniProt P15431+P62813)", "sequence (P62813 28-455)": "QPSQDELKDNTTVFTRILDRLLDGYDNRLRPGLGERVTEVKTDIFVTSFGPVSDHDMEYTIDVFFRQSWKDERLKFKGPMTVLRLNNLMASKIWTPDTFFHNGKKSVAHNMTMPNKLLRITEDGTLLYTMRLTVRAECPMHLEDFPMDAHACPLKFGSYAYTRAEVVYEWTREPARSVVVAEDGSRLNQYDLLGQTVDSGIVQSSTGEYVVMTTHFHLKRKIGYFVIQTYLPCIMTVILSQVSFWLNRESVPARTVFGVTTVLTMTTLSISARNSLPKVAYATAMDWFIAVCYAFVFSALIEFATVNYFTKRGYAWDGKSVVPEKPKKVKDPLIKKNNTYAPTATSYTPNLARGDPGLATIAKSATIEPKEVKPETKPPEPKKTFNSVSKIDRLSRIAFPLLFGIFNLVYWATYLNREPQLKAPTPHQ", "sequence (P15431 26-474)": "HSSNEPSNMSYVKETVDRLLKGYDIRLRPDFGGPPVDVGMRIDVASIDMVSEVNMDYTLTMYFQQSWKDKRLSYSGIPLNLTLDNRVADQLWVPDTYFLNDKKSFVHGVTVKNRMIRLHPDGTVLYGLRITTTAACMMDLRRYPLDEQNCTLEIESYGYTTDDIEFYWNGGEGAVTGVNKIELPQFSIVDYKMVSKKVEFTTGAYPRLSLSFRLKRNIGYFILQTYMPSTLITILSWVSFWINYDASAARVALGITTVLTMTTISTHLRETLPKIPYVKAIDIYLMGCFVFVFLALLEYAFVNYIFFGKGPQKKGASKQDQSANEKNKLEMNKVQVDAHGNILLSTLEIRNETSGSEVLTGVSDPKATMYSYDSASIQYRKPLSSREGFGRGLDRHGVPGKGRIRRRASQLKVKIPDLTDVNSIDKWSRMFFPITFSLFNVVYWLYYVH", "conditions": "1 mM alcohol", "from_the_text": "(§1) Plasmids with inserts encoding GABAA receptor subunit sequence for rat α1 (62), rat β2 (83), rat α2 (62), rat α5 (62), mouse α4 (37), mouse β3 (82), rat β1 (83), rat γ2S (63), human δ (12), and human ε (11) were produced by subcloning each separately into an appropriate cloning vehicle such as PCDM8, pCDNA3.1 or pGHEMHE vectors (Invitrogen, Carlsbad Calif.) using a T7 promoter and standard subcloning techniques (59). Plasmids were linearized with an appropriate restriction enzyme at a site 3′ to the insert and cRNAs were synthesized using T3 or T7 polymerase (mMessage mMachine, Ambion, Tex.). The size of the cRNA was verified and RNA was quantified by ethidium bromide staining after electrophoresis on 1% agarose gels.\nThe preparation, injection, and maintenance of oocytes were carried out as described previously (78). […]\nVoltage-clamp recording was carried out 1 to 3 days after injection of cRNAs. […] Oocytes were voltage-clamped at −70 mV and macroscopic currents were recorded with a two-electrode voltage-clamp using a Warner Instruments OC-725 amplifier as described previously (79). Currents were recorded on a chart recorder or by using Axograph on a Macintosh computer. […]"}, "[3]": {"system": "GABAA receptors of acutely isolated CA1 hippocampal pyramidal cells", "experiment": "Whole cell patch clamp, ethanol or THIP effect on GABA-gated current", "format": "cell-based, rat", "conditions": "for potentiation of GABA-gated currents: progesterone-withdrawal model; for potentiation of GABA-gated responses: after progesterone withdrawal", "method": "Pyramidal neurons were acutely dissociated from CA1 hippocampus and GABA-gated Cl^− currents analyzed using whole cell patch clamp procedures as previously described (67). Briefly, tissue was digested at 32° C. for 50-60 minutes under 100% O2 in PIPES-buffered saline containing (in mM): NaCl 120, KCl 5, CaCl2 1, MgCl2 1, D-glucose 25, PIPES 20 and trypsin (type XI, sigma) 0.8 mg/ml, pH 7.0. After 1 hour of enzyme-free incubation at room temperature, tissue was dissociated by trituration in 1 ml of 20 mM HEPES-buffered DMEM which was replaced by recording medium after transfer to the recording chamber. GABA-gated currents were recorded at room temperature (20-25° C.) at a holding potential of −50 mV in a bath containing (in mM): NaCl 120, CsCl 5, CaCl2 2, MgCl2 1, TEA Cl 15, 4-aminopyridine 5, HEPES 10 and glucose 25, pH 7.4, 320 mOsm/kg H2O. The pipette solution contained (in mM): N-methyl-D-glucamine chloride 120, Cs4BAPTA 5 and Mg-ATP 5. The ATP regeneration system Tris phosphocreatine (20 mM) and creatine kinase were added to minimize GABA rundown. All drugs were obtained from Sigma Chemical Co, (St. Louis, Mo.), except for BAPTA (Calbiochem, San, Diego, Calif.).\nPeak currents were calculated for all drug concentrations as relative to the current gated by 10 μM GABA alone using the equation: ([peak current: GABA+ETOH]−[peak current: GABA alone])/[peak current: GABA alone]. Currents were recorded using an Axopatch 1D amplifier (Axon Instruments) filtered at 2 kHz (four-pole Bessel filter) and detected at 500 Hz (pClamp 5.1).\nFollowing progesterone withdrawal or control conditions, pyramidal cells were acutely isolated from CA1 hippocampus as described (65,64). GABA-gated Cl^− currents were recorded using whole cell patch clamp techniques at a holding potential of −50 mV."}, "[4]": {"system": "α1β2δ receptors (oocytes injected with α1+β2+δ)", "format": "cell-based, rat α1, rat β2, human δ, expressed in Xenopus laevis oocytes", "conditions": "oocytes injected with α1+β2+δ", "from_the_text": "as §1\nThe preparation, injection, and maintenance of oocytes were carried out as described previously (78). Oocytes were injected with receptor subunit cRNAs (2 to 20 ng) in the following ratios: α1:β1:γ2S, α1:β2:γ2S and α1:β1:ε1, 1:1:1; α2:β1:γ2S, α5:β1:γ2S, α4:β1:γ2S, and α4:β2:γ2S, 10:1:1; α4:β1:δ, α4:β2:δ, α4:β3δ, 10:1:10; α1:β2:δ, 1:1:10 or 1:0.5:3; α1:β1:δ, 1:1:10 or 1:0.5:3; α2:β1:δ and α2:β2:δ, 1:0.5:3; α1:β1, α1:β2, α2:β1, α2:β2, β2:γ2S and α4δ, 1:1, α4:β1, α4:β2, α4:β3, 10:1, β2δ, 1:10.\nVoltage-clamp recording was carried out 1 to 3 days after injection of cRNAs. Electrodes were filled with 3 M KCl and had resistances of 0.4-4 MΩ. Oocytes were positioned in a small Perspex chamber and continuously superfused with a saline solution (100 mM NaCl, 2 mM KCl, 1.8 mM CaCl2, 10 mM HEPES, pH 7.5). Agonists and modulators were both applied in the same saline solution. Oocytes were voltage-clamped at −70 mV and macroscopic currents were recorded with a two-electrode voltage-clamp using a Warner Instruments OC-725 amplifier as described previously (79). Currents were recorded on a chart recorder or by using Axograph on a Macintosh computer.\nOther subunits (α1, α2, β1, β2) were tested for co-expression with the δ subunit. […]"}, "[5]": {"molecular_target": "T1, α4β2δ GABAA receptors (UniProt O14764+P63138+Q9D6F4)", "T1 construct": "expressed in transfected cells", "T1 sequence (Q9D6F4 36-552)": "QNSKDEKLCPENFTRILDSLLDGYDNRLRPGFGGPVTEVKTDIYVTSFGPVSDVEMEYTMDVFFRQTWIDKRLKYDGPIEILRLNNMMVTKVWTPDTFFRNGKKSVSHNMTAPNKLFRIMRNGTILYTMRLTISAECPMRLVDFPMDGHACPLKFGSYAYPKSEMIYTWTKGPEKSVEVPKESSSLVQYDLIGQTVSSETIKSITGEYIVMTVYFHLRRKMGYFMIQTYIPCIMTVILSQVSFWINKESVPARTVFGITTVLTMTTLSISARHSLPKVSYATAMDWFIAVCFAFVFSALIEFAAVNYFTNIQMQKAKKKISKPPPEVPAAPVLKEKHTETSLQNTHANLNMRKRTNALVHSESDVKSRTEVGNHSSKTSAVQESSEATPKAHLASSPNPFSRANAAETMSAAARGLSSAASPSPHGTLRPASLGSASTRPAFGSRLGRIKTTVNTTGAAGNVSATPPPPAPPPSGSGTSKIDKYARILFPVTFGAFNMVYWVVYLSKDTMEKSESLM", "T1 sequence (P63138 25-474 limits assumed)": "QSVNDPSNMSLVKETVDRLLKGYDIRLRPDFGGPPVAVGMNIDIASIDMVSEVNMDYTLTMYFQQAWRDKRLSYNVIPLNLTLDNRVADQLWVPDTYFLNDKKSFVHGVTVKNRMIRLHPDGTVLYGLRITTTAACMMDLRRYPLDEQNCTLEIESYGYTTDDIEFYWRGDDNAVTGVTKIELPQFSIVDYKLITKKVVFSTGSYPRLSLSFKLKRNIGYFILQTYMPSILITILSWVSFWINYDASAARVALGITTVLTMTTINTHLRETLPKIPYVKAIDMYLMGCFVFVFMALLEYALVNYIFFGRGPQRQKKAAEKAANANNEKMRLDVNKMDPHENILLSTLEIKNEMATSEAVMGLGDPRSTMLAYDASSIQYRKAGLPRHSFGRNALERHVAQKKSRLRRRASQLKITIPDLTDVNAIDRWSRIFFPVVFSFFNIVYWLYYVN", "T1 sequence (O14764 17-452 limits assumed)": "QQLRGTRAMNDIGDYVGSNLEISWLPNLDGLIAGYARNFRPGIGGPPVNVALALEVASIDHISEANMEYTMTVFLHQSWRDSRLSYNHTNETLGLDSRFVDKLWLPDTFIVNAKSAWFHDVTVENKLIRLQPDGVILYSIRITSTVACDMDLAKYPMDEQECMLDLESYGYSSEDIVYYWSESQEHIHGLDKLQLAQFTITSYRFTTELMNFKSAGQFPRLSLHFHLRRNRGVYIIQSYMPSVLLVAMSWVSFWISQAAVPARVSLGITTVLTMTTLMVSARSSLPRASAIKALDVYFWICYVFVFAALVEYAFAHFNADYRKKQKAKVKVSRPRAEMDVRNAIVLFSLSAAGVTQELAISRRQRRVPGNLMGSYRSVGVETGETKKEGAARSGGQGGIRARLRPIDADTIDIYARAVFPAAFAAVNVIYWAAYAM", "experiment": "Two-electrode voltage-clamp of recombinant GABAA receptors in oocytes", "format": "cell-based", "conditions": "1 mM ethanol"}}}
{"smiles": "CCO", "note": "[ethanol]", "values": [{"measurement": "% open arm entries, P withdrawn greater than control animals after ethanol", "setting": "[1]", "value": 50, "unit": "%"}, {"measurement": "time in the open arm, P withdrawn relative to control animals after ethanol", "setting": "[1]", "value": 3, "unit": "fold"}, {"measurement": "increase of % of open arm entries compared to vehicle", "setting": "[1]; P withdrawn animals", "value": 7, "unit": "fold"}, {"measurement": "increase of time in the open arm compared to vehicle", "setting": "[1]; P withdrawn animals", "value": "more than 20 fold"}, {"measurement": "effect on open arm time and % open arm entries", "setting": "[1]; control animals", "value": "no significant effect"}, {"measurement": "locomotor activity (total number of arm entries)", "setting": "[1]; either group", "value": "not significantly altered"}, {"measurement": "effect on GABA responses", "setting": "[2]", "value": "not altered"}, {"measurement": "GABA-modulatory effects of alcohol", "setting": "[3]; 1 mM alcohol, progesterone withdrawal with α4 expression suppressed", "value": "prevented"}, {"measurement": "potentiation of GABA-gated currents", "setting": "[3]; 1 mM alcohol", "value": "81±21", "unit": "%"}, {"measurement": "potentiation of GABA-gated responses", "setting": "[3]; 3 mM ethanol with 10 μM GABA", "value": "75±10", "unit": "%"}, {"measurement": "potentiation of GABA-gated currents", "setting": "[3]; 10 mM and greater alcohol", "value": "not as effective"}, {"measurement": "potentiation of GABA-gated responses", "setting": "[3]; 20 mM ethanol", "value": "ineffective"}, {"measurement": "effect on GABA responses", "setting": "[3]; 3 or 20 mM ethanol, cells from control animals", "value": "neither concentration produced an effect"}, {"measurement": "responses to GABA in presence of alcohol, % of control", "setting": "[4]", "value": "88-95 % of control"}, {"measurement": "increase of GABA-gated currents at α4β2δ receptors", "setting": "[5]", "value": "45±11", "unit": "%"}]}
